“And” between values parts separate entries of the source, which are not always exact repeats. Equal values may be shown once. A value given as a limit tells only on which side of the number the result lay.

The first experiment has as its target T1, recombinant human GST-SYK (Homo sapiens, UniProt P43405).
T1 construct: purchased Carna Biosciences 08-176
Kind of experiment: Homogeneous Time-Resolved Fluorescence (HTRF) assay for the recombinant human Syk enzyme. In kind it is biochemical. As to conditions: GST-hSYK 5 pM, ATP 25 μM, IC50 rated in classes, read-out: rhSYK Activity. On the procedure: Homogeneous Time-Resolved Fluorescence (HTRF) Assay for the Recombinant Human Syk Enzyme
A recombinant GST-hSYK fusion protein was used to measure potency of compounds to inhibit human Syk activity. The recombinant human GST-SYK (Carna Biosciences #08-176) (5 pM final concentration) was incubated with various concentrations of the inhibitor diluted in DMSO (0.1% final concentration) for 10 minutes at room temperature in 15 mM Tris-HCl (pH 7.5), 0.01% tween 20, 2 mM DTT in 384 well plate format. To initiate the reaction the biotinylated substrate peptide (250 nM final concentration) that contains the phosphorylation site for Syk was added with magnesium (5 mM final concentration) and ATP (25 μM final concentration). Final volume of the reaction was 10 μL. Phosphorylation of the peptide was allowed to proceed for 45′ at room temperature. To quench the reaction and detect the phosphorylated product, 2 nM of a Europium-anti-phosphotyrosine antibody (Perkin Elmer #AD0161) and 70 nM SA-APC (Perkin-Elmer #CR130-100) were added together in 15 mM Tris pH 7.5, 40 mM EDTA, 0.01% tween 20. Final volume of the quenching solution was 10 μL. The resulting HTRF signal was measured after 30 minutes on an EnVision (Perkin-Elmer) reader using a time-resolved fluorescence protocol.
(In general: In TR-FRET formats the signal depends on donor and acceptor labels being close together.)
Consider `CC(=O)N1CCN(c2ncc(-c3cc(C)cc(Nc4nccc(C(F)(F)F)n4)c3)cn2)CC1` [Example 2.40, N-{3-[2-(4-acetylpiperazin-1-yl)pyrimidin-5-yl]-5-methylphenyl}-4-(trifluoromethyl)pyrimidin-2-amine], for which the IC50 was less than 100 nM.

For the molecule `Cc1cc(Nc2nccc(C(F)F)n2)cc(-c2cnc([C@H](C)[C@H]3CC[C@H](C(=O)O)[C@H](C)C3)nc2)c1` (single isomer, unassigned) [Example 7.6], the IC50 was less than 100 nM.

Take `Cc1cc(Nc2nccc(C(F)(F)F)n2)cc(-c2cnc(NCc3cn(C)cn3)nc2)c1` [Example 2.63, N-[3-methyl-5-(2-{[(1-methyl-1H-imidazol-4-yl)methyl]amino}pyrimidin-5-yl)phenyl]-4-(trifluoromethyl)pyrimidin-2-amine]: the IC50 was less than 100 nM.

On to `Cc1cc(Nc2nccc(C(F)(F)F)n2)cc(-c2ccc(N3CCOCC3)nn2)c1` [Example 3.29, N-[3-methyl-5-(6-morpholin-4-ylpyridazin-3-yl)phenyl]-4-(trifluoromethyl)pyrimidin-2-amine], for which the IC50 is 100 to 1000 nM.

As to `Cc1cc(Nc2nccc(C(F)(F)F)n2)cc(-c2ccc(C(C)(C)O)nn2)c1` [Example 3.36, 2-[6-(3-methyl-5-{[4-(trifluoromethyl)pyrimidin-2-yl]amino}phenyl)pyridazin-3-yl]propan-2-ol], the IC50 was 100 to 1000 nM.

In the case of `CCOC(=O)CCc1cc(-c2cc(C)cc(Nc3nccc(C)n3)c2)ncn1` [Example 3.51, ethyl 3-(6-{3-methyl-5-[(4-methylpyrimidin-2-yl)amino]phenyl}pyrimidin-4-yl)propanoate], the IC50 lay in the range of 1000 to 10000 nM.

On to `Cc1cc(Nc2nccc(C(F)(F)F)n2)cc(-c2cnccn2)c1` [Example 3.2, N-(3-methyl-5-pyrazin-2-ylphenyl)-4-(trifluoromethyl)pyrimidin-2-amine], for which the IC50 was 100 to 1000 nM and < 100 nM.

As to `Cc1cc(Nc2nccc(C)n2)cc(-c2cncc(CCC(=O)O)n2)c1` [Example 3.20, 3-(6-{3-methyl-5-[(4-methylpyrimidin-2-yl)amino]phenyl}pyrazin-2-yl)propanoic acid], the IC50 was 100 to 1000 nM.

With `Cc1cc(Nc2nccc(C(F)F)n2)cc(-c2cnc([C@H](C)[C@H]3CC[C@H](C(=O)O)[C@H](C)C3)nc2)c1` (single isomer, unassigned) [Example 7.2], the IC50 is less than 100 nM.

As to `Cc1cc(Nc2nccc(C(F)(F)F)n2)cc(-c2cnc(N3CCC3C(=O)O)nc2)c1` (stereo not shown) [Example 2.54, 1-[5-(3-methyl-5-{[4-(trifluoromethyl)pyrimidin-2-yl]amino}phenyl)pyrimidin-2-yl]azetidine-2-carboxylic acid], the IC50 was less than 100 nM.

Take `Cc1cc(Nc2nccc(C(F)(F)F)n2)cc(-c2ccc(N(C)CC(=O)O)nn2)c1` [Example 3.38, N-methyl-N-[6-(3-methyl-5-{[4-(trifluoromethyl)pyrimidin-2-yl]amino}phenyl)pyridazin-3-yl]glycine]: the IC50 is less than 100 nM.

`CCOC(=O)CCc1ccc(-c2cc(C)cc(Nc3nccc(C4CC4)n3)c2)nn1` [Example 3.42, ethyl 3-(6-{3-[(4-cyclopropylpyrimidin-2-yl)amino]-5-methylphenyl}pyridazin-3-yl)propanoate]: the IC50 was 100 to 1000 nM.

On to `CNC(=O)CNc1ncc(-c2cc(C)cc(Nc3nccc(C(F)(F)F)n3)c2)cn1` [Example 2.44, N-methyl-N~2~-[5-(3-methyl-5-{[4-(trifluoromethyl)pyrimidin-2-yl]amino}phenyl)pyrimidin-2-yl]glycinamide], for which the IC50 was less than 100 nM.

Take `Cc1cc(Nc2nccc(C(F)(F)F)n2)cc(-c2ccc(N3CCC(C(=O)O)CC3)nn2)c1` [Example 3.37, 1-[6-(3-methyl-5-{[4-(trifluoromethyl)pyrimidin-2-yl]amino}phenyl)pyridazin-3-yl]piperidine-4-carboxylic acid]: the IC50 was less than 100 nM.

On to `Cc1cc(Nc2nccc(C(F)(F)F)n2)cc(-c2ccc(-c3ccc(C(=O)O)cc3)nn2)c1` [Example 3.33, 4-[6-(3-methyl-5-{[4-(trifluoromethyl)pyrimidin-2-yl]amino}phenyl)pyridazin-3-yl]benzoic acid], for which the IC50 was less than 100 nM.

Consider `Cc1cc(Nc2nccc(C(F)(F)F)n2)cc(-c2cnc(N3CCC[C@H]3C(=O)O)nc2)c1` [Example 2.5, 1-[5-(3-methyl-5-{[4-(trifluoromethyl)pyrimidin-2-yl]amino}phenyl)pyrimidin-2-yl]-L-proline], for which the IC50 is less than 100 nM.

Regarding `Cc1cc(Nc2nccc(C(F)(F)F)n2)cc(-c2cnc(NCC3COCCO3)nc2)c1` (stereo not shown) [Example 2.19, N-(3-{2-[(1,4-dioxan-2-ylmethyl)amino]pyrimidin-5-yl}-5-methylphenyl)-4-(trifluoromethyl)pyrimidin-2-amine], the IC50 was less than 100 nM.

On to `Cc1cc(Nc2nccc(C(F)(F)F)n2)cc(-c2cnc(N3CCC(C)(O)C3)nc2)c1` (stereo not shown) [Example 2.28, 3-methyl-1-[5-(3-methyl-5-{[4-(trifluoromethyl)pyrimidin-2-yl]amino}phenyl)pyrimidin-2-yl]pyrrolidin-3-ol], for which the IC50 is less than 100 nM.

Consider `Cc1cc(Nc2nccc(C(F)(F)F)n2)cc(-c2cnc(NC3(C(N)=O)CC3)nc2)c1` [Example 4.1, 1-{[5-(3-methyl-5-{[4-(trifluoromethyl)pyrimidin-2-yl]amino}phenyl)pyrimidin-2-yl]amino}cyclopropanecarboxamide], for which the IC50 was less than 100 nM.

Take `Cc1cc(Nc2nccc(C(F)(F)F)n2)cc(-c2cnc(NCC(O)C(F)F)nc2)c1` (stereo not shown) [Example 2.15, 1,1-difluoro-3-{[5-(3-methyl-5-{[4-(trifluoromethyl)pyrimidin-2-yl]amino}phenyl)pyrimidin-2-yl]amino}propan-2-ol]: the IC50 was less than 100 nM.

For the molecule `COc1ccnc(Nc2cc(C)cc(-c3cnc(CCC(=O)O)cn3)c2)n1` [Example 3.6, 3-(5-{3-[(4-methoxypyrimidin-2-yl)amino]-5-methylphenyl}pyrazin-2-yl)propanoic acid], the IC50 was less than 100 nM.

For the molecule `Cc1cc(Nc2nccc(C(F)(F)F)n2)cc(-c2cnc(NCC(C)(C)O)nc2)c1` [Example 2.47, 2-methyl-1-{[5-(3-methyl-5-{[4-(trifluoromethyl)pyrimidin-2-yl]amino}phenyl)pyrimidin-2-yl]amino}propan-2-ol], the IC50 was less than 100 nM.

As to `Cc1cc(Nc2nccc(C(F)(F)F)n2)cc(-c2cnc(N3CCC(O)C3)nc2)c1` (stereo not drawn) [Example 2.10, l-[5-(3-methyl-5-{[4-(trifluoromethyl)pyrimidin-2-yl]amino}phenyl)pyrimidin-2-yl]pyrrolidin-3-ol], the IC50 is less than 100 nM.

As to `Cc1cc(Nc2nccc(C(F)(F)F)n2)cc(-c2ccc(CCC(=O)O)nn2)c1` [Example 3.39, 3-[6-(3-methyl-5-{[4-(trifluoromethyl)pyrimidin-2-yl]amino}phenyl)pyridazin-3-yl]propanoic acid], the IC50 is less than 100 nM.

As for `Cc1cc(Nc2nccc(C(F)(F)F)n2)cc(-c2ccc(N3CCC(C(N)=O)CC3)nn2)c1` [Example 3.31, 1-[6-(3-methyl-5-{[4-(trifluoromethyl)pyrimidin-2-yl]amino}phenyl)pyridazin-3-yl]piperidine-4-carboxamide], the IC50 was less than 100 nM.

Staying with this experiment, now noted: GST-hSYK 5 pM, ATP 25 μM, values in text, read-out: IC50.
`Cc1cc(Nc2nccc(C(F)F)n2)cc(-c2cnc([C@H](C)[C@H]3CC[C@H](C(=O)O)[C@H](C)C3)nc2)c1` (single isomer, unassigned) [Example 7.6]: the IC50 came out at 0.7 nM.

In the case of `Cc1cc(Nc2nccc(C(F)F)n2)cc(-c2cnc([C@H](C)[C@H]3CC[C@H](C(=O)O)[C@H](C)C3)nc2)c1` (single isomer, unassigned) [Example 7.2], the IC50 is less than 0.5 nM.

In the case of `Cc1cc(Nc2nccc(C(F)(F)F)n2)cc(-c2cnc(NC3(C(N)=O)CC3)nc2)c1` [Example 4.1, 1-{[5-(3-methyl-5-{[4-(trifluoromethyl)pyrimidin-2-yl]amino}phenyl)pyrimidin-2-yl]amino}cyclopropanecarboxamide], the IC50 is 21.6 nM.

(Values after patent US9416111B2, “Substituted diazine and triazine spleen tyrosine kinease (Syk) inhibitors” (Merck Sharp & Dohme Corp., priority 2012, dated 2016).)
